Experimental data: patent US7432392B2, “Ester derivatives and medical use thereof” (Japan Tobacco Inc., priority 2003, dated 2008)
pIC50: −log10 of the molar value.

What was measured:
[1] = test system: apolipoprotein B secretion from HepG2 cells; experiment: Inhibition of apolipoprotein B secretion from HepG2 cells; format: cell-based; conditions: Homo sapiens, about 20 hours incubation, apo B in supernatant by ELISA
Protocol: HepG2 cells were suspended in Dulbecco's Modified Eagle's Medium (DMEM) (containing 10% fetal bovine serum, 100 units/mL penicillin and 100 μg/mL streptomycin), and placed on a 96-well plate (4×10^4 cells/well), then incubated for 24 hours. After removal of the medium, DMEM was replaced by a medium containing a sample dissolved in DMSO or a medium containing DMSO (concentration of DMSO: 0.5%) and incubation was further performed for about 20 hours, after which the supernatant was recovered, and concentration of apo B in the supernatant was assayed by Enzyme-Linked Immunosorbent Assay (ELISA)
ELISA was carried out as follows. Anti-human apo B monoclonal antibody (0.5 μg/well) diluted with a 50 mM sodium carbonate/sodium bicarbonate buffer was placed in a 96-well plate for ELISA, and allowed to stand at room temperature for 15 hours. After washing the plate, a blocking solution (250 μL/well) was placed in the well, and allowed to stand at room temperature for 1.5 hours. After washing the plate, a standard and a sample (100 μL/well) were placed in the well and allowed to stand at room temperature for 1.5 hours. The standard was prepared by adjusting the concentration of the purified human apo B with the DMEM to 0 to 250 ng/mL. After washing the plate, an anti-human apo B polyclonal antibody labeled with a horse radish peroxidase which was diluted in 1:1000 with DEME (100 μL/well) was added, and allowed to stand at room temperature for 1.5 hours. After washing the plate, 2,2-azinobis(3-ethylbenzothiazoline-6-sulfonic acid) solution (100 μL/well) was placed in the well, and allowed to stand at room temperature for 0.5 hour. The reaction was stopped by addition of 2% oxalic acid (100 μL/well), and absorbency at 405 nm was measured. Concentration of apo B in the sample was calculated on the basis of a standard curve of the standard. Inhibition rate (%) was calculated from the assayed values in accordance with the following equation. Inhibition rate (%)=100×(1 minus (concentration of apo B in sample group/concentration of apo B in DMSO group).
Based on the above equation, 50% inhibition concentration (IC50) was determined.

[2] = Metabolic stability test in liver S9 (human); format: in vitro ADME; conditions: Human liver S9, 2 mg protein/mL, 37° C.
Protocol: (§1) Human and hamster liver S9 (final concentration: 2 mg protein/mL), and human and hamster small intestine S9 (final concentration: 2 mg protein/mL) were each suspended in 100 mM potassium phosphate buffer (pH 7.4, containing β-nicotinamide adenine dinucleotide phosphate: 1.3 mM, D-glucose-6-phosphate: 3.3 mM, magnesium chloride: 3.3 mM, and glucose-6-phosphate dehydrogenase: 0.4 U/mL). The suspensions were mixed with a solution of a sample (Example 1) in DMSO. The solutions were incubated at 37° C. for 0, 10 and 60 minutes, and an organic solvent was added thereto. The solutions were centrifuged, and the concentration of the sample (unchanged form) in the supernatant was determined by high performance liquid chromatography/mass spectrometry (LC/MS). Based on the data obtained, remaining rate (%) was calculated according to the following equation. Remaining rate(%)=amount of sample 10 or 60 minutes after incubation/amount of sample at zero time after incubation×100

[3] = Metabolic stability test in small intestine S9 (hamster); format: in vitro ADME; conditions: Hamster small intestine S9, 2 mg protein/mL, 37° C.
Protocol: as §1

CCOC(=O)C(COC(=O)Cc1ccc(NC(=O)c2ccccc2-c2ccc(C(F)(F)F)cc2)c(OC(C)=O)c1)(C(=O)OCC)c1ccccc1 [Example 1, 2-(2-{3-acetoxy-4-[(4′-trifluoromethyl-biphenyl-2-carbonyl)amino]phenyl}acetoxymethyl)-2-phenylmalonic acid diethyl ester]
pIC50 [1]: > 6.00
Remaining rate (%) after 10 minutes ([2]; 10 minutes): 6.2%
Remaining rate (%) after 60 minutes ([2]; 60 minutes): 1.8%
Remaining rate (%) after 10 minutes ([3]; 10 minutes): 4.1%
Remaining rate (%) after 60 minutes ([3]; 60 minutes): 0.0%
